Assay results as given in patent US12252524B2, “GIP/GLP1 co-agonist compounds” (Eli Lilly and Company, priority 2018, dated 2025).
Numbered stars: 1 amine (or outer) side, 2 acyl side, 3 side chain; on linkers, the order of the positions; unused ones are H or OH. Square brackets hold non-standard residues; d marks the D form. Side chains are listed from the residue outwards. Peptide text beside a SMILES is read from it. * marks the point of attachment. C20 diacid = O=C(O)CCCCCCCCCCCCCCCCCCC(=O)*; C18 diacid = O=C(O)CCCCCCCCCCCCCCCCC(=O)*; αMePhe(2-F) = C[C@](N)(Cc1ccccc1F)C(=O)O; γGlu = O=C(O)[C@H](CCC(=O)[*:2])N[*:1]; Desaminotyrosyl = O=C(CCc1ccc(O)cc1)*; αMeY = C[C@](N)(Cc1ccc(O)cc1)C(=O)O; αMeF = C[C@](N)(Cc1ccccc1)C(=O)O; αMeL = CC(C)C[C@](C)(N)C(=O)O; Orn = NCCC[C@H](N)C(=O)O; AEEA = NCCOCCOCC(=O)O; Aib = CC(C)(N)C(=O)O

Tests used:
[1] = target: human GLP-1 receptor (GLP-1R) (Homo sapiens, UniProt P43220); test: cAMP pharmacological functional assay in presence of casein, hGLP-1R; type: cell-based; details: HEK293 cells expressing hGLP-1R, 0.1% Casein, geometric mean; read-out: hGLP1R cAMP Rel EC50 nM (SEM, n)
Chain of human GLP-1 receptor (GLP-1R) (P43220 24-463): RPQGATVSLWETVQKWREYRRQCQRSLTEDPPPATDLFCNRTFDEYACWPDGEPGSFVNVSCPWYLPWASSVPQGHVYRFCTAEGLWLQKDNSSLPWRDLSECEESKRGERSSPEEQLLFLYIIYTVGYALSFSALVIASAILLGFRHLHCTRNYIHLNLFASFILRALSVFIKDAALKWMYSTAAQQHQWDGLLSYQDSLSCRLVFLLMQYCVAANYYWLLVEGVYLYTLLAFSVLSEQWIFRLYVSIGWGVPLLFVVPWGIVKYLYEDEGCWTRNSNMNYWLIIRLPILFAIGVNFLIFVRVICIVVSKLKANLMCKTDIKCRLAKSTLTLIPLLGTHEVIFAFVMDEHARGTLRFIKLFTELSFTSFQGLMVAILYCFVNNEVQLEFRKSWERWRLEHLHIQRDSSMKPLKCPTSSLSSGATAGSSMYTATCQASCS

human GIP receptor = target: T1, human GIP receptor (Homo sapiens, UniProt P48546); test: [125I]-GIP binding (SPA), human GIP receptor; details: read-out: hGIPR Ki, nM (SEM, n)
T1 construct: expressed in transfected cells; crude membranes
T1 sequence (P48546 22-466): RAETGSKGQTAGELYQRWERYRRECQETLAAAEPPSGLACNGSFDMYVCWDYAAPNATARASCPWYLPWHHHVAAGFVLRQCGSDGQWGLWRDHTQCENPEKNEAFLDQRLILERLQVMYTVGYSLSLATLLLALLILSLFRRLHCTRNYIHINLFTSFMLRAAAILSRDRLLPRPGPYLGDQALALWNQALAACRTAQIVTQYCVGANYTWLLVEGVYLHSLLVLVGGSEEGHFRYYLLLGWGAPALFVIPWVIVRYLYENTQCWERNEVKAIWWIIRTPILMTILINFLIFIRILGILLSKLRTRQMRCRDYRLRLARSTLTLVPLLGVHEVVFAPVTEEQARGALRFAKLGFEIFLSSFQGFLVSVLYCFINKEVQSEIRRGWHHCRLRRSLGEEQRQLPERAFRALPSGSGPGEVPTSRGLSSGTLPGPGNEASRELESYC

human Gcg receptor = target: T2, human Gcg receptor (Homo sapiens, UniProt P47871); test: [125I]-Glucagon binding (SPA), human Gcg receptor; details: read-out: hGLcgR Ki, nM (SEM, n)
T2 construct: expressed in transfected cells; crude membranes
T2 sequence (P47871 26-477): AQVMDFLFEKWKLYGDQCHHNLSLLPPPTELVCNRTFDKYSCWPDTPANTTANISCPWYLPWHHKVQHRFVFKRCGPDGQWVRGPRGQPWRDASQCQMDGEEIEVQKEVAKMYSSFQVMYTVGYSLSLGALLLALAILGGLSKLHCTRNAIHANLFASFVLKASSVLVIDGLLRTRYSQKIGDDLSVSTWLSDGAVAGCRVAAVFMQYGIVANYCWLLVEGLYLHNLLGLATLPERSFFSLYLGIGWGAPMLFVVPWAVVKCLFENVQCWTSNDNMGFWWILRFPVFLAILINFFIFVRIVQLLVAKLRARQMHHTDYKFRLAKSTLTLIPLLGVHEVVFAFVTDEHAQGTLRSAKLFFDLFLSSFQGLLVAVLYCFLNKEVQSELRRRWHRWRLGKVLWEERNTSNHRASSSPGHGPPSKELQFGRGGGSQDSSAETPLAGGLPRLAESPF
Method in brief: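 Cell pellets were lysed in hypotonic Tris buffer, pH 7.5, homogenized, and spun at low then high speed to give crude membranes. Ki was derived from the fitted IC50.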

human GLP-1R = human GLP-1R (Homo sapiens, UniProt P43220); test: [125I]-GLP-1 binding (SPA), human GLP-1 receptor; set-up: expressed in transfected cells; crude membranes; details: read-out: hGLP1R Ki, (nM) (SEM, n)
Chain of human GLP-1R (P43220 24-463): as the sequence (P43220 24-463) above
Method in brief: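 Ki values are geometric means with SEM over independent replicates on different days, derived from IC50s fitted by four-parameter nonlinear regression. The assay used crude cell membranes in HEPES buffer, pH 7.4, containing CaCl2, MgCl2, bacitracin and TWEEN-20.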

[2] = target: T3, gastric inhibitory peptide receptor (GIPR) (Homo sapiens, UniProt P48546); test: cAMP pharmacological functional assay in presence of casein, hGIPR; type: cell-based; details: HEK293 cells expressing hGIPR, 0.1% Casein, geometric mean; read-out: hGIPR cAMP Rel EC50 nM (SEM, n)
T3 sequence (P48546 22-466): T1 sequence (P48546 22-466)

SMILES	EC50 [1] [nM]	Ki (human GIP receptor) [nM]	Ki (human Gcg receptor) [nM]	Ki (human GLP-1R) [nM]	EC50 [2] [nM]
CC[C@H](C)[C@H](NC(=O)[C@H](CC(C)C)NC(=O)[C@H](Cc1ccc(O)cc1)NC(=O)[C@@H](CCC(=O)O)NC(=O)[C@@H](NC(=O)[C@H](Cc1ccccc1)NC(=O)[C@H](CCC(=O)O)NC(=O)C(C)(C)NC(=O)[C@H](CCC(N)=O)NC(=O)[C@H](C)NC(=O)[C@H](CCCCNC(=O)COCCOCCNC(=O)COCCOCCNC(=O)CC[C@H](NC(=O)CCCCCCCCCCCCCCCCCCC(=O)O)C(=O)O)NC(=O)[C@H](CCC(=O)O)NC(=O)[C@H](CC(=O)O)NC(=O)[C@H](CC(C)C)NC(=O)C(C)(C)NC(=O)[C@@H](NC(=O)[C@H](CO)NC(=O)[C@H](Cc1ccc(O)cc1)NC(=O)[C@H](CC(=O)O)NC(=O)[C@H](CO)NC(=O)[C@@H](NC(=O)[C@](C)(Cc1ccccc1F)NC(=O)[C@@H](NC(=O)CNC(=O)[C@H](CCC(=O)O)NC(=O)C(C)(C)NC(=O)[C@@H](N)Cc1ccc(O)cc1)[C@@H](C)O)[C@@H](C)O)[C@@H](C)CC)[C@@H](C)CC)C(=O)N[C@@H](CCC(=O)O)C(=O)NCC(=O)NCC(=O)N1CCC[C@H]1C(=O)N[C@@H](CO)C(=O)N[C@@H](CO)C(=O)NCC(=O)N[C@@H](C)C(=O)N1CCC[C@H]1C(=O)N1CCC[C@H]1C(=O)N1CCC[C@H]1C(=O)N[C@@H](CO)C(N)=O [Example 224] (H-Y[Aib]EGT[αMePhe(2-F)]TSDYSI[Aib]LDEK([AEEA-AEEA-γGlu-C20 diacid])AQ[Aib]EFI[dE]YLIEGGPSSGAPPPS-NH2)	0.0349	0.0482	627	6.86	0.0545
CC[C@H](C)[C@H](NC(=O)[C@H](CC(C)C)NC(=O)[C@H](Cc1ccc(O)cc1)NC(=O)[C@H](CCC(=O)O)NC(=O)[C@@H](NC(=O)[C@H](Cc1ccccc1)NC(=O)[C@H](C)NC(=O)C(C)(C)NC(=O)[C@H](CCC(N)=O)NC(=O)[C@H](C)NC(=O)[C@H](CCCCNC(=O)COCCOCCNC(=O)COCCOCCNC(=O)CC[C@H](NC(=O)CCCCCCCCCCCCCCCCCCC(=O)O)C(=O)O)NC(=O)[C@H](CCCCN)NC(=O)[C@H](CC(=O)O)NC(=O)[C@H](CC(C)C)NC(=O)[C@](C)(CC(C)C)NC(=O)[C@@H](NC(=O)[C@H](CO)NC(=O)[C@H](Cc1ccc(O)cc1)NC(=O)[C@H](CC(=O)O)NC(=O)[C@H](CO)NC(=O)[C@@H](NC(=O)[C@H](Cc1ccccc1)NC(=O)[C@@H](NC(=O)CNC(=O)[C@H](CCC(=O)O)NC(=O)C(C)(C)NC(=O)[C@@H](N)Cc1ccc(O)cc1)[C@@H](C)O)[C@@H](C)O)[C@@H](C)CC)[C@@H](C)CC)C(=O)N[C@@H](CCC(=O)O)C(=O)NCC(=O)NCC(N)=O [Example 62] (H-Y[Aib]EGTFTSDYSI[αMeL]LDKK([AEEA-AEEA-γGlu-C20 diacid])AQ[Aib]AFIEYLIEGG-NH2)	0.159	0.0545	168	2.03	0.0601
CC[C@H](C)[C@H](NC(=O)[C@H](CC(C)C)NC(=O)[C@H](Cc1ccc(O)cc1)NC(=O)[C@H](CCC(=O)O)NC(=O)[C@@H](NC(=O)[C@H](Cc1ccccc1)NC(=O)[C@H](C)NC(=O)C(C)(C)NC(=O)[C@H](CCC(N)=O)NC(=O)[C@H](C)NC(=O)[C@H](CCCCNC(=O)COCCOCCNC(=O)COCCOCCNC(=O)CC[C@H](NC(=O)CCCCCCCCCCCCCCCCCCC(=O)O)C(=O)O)NC(=O)[C@H](CCCCN)NC(=O)[C@H](CC(=O)O)NC(=O)[C@H](CC(C)C)NC(=O)[C@H](CC(C)C)NC(=O)[C@@H](NC(=O)[C@H](CO)NC(=O)[C@H](Cc1ccc(O)cc1)NC(=O)[C@H](CC(=O)O)NC(=O)[C@H](CO)NC(=O)[C@@H](NC(=O)[C@H](Cc1ccccc1)NC(=O)[C@@H](NC(=O)CNC(=O)[C@H](CCC(=O)O)NC(=O)C(C)(C)NC(=O)[C@@H](N)Cc1ccc(O)cc1)[C@@H](C)O)[C@@H](C)O)[C@@H](C)CC)[C@@H](C)CC)C(=O)N[C@@H](CCC(=O)O)C(=O)NCC(=O)NCC(N)=O [Example 51] (H-Y[Aib]EGTFTSDYSILLDKK([AEEA-AEEA-γGlu-C20 diacid])AQ[Aib]AFIEYLIEGG-NH2)	0.153	0.062	195	5.62	0.096
CC[C@H](C)[C@H](NC(=O)[C@H](CC(C)C)NC(=O)[C@H](Cc1ccc(O)cc1)NC(=O)[C@H](CCC(=O)O)NC(=O)[C@@H](NC(=O)[C@H](Cc1ccccc1)NC(=O)[C@H](C)NC(=O)C(C)(C)NC(=O)[C@H](CCC(N)=O)NC(=O)[C@H](C)NC(=O)[C@H](CCCCNC(=O)COCCOCCNC(=O)COCCOCCNC(=O)CC[C@H](NC(=O)CCCCCCCCCCCCCCCCCCC(=O)O)C(=O)O)NC(=O)[C@H](CCC(=O)O)NC(=O)[C@H](CC(=O)O)NC(=O)[C@H](CC(C)C)NC(=O)C(C)(C)NC(=O)[C@@H](NC(=O)[C@H](CO)NC(=O)[C@H](Cc1ccc(O)cc1)NC(=O)[C@H](CC(=O)O)NC(=O)[C@H](CO)NC(=O)[C@@H](NC(=O)[C@](C)(Cc1ccccc1)NC(=O)[C@@H](NC(=O)CNC(=O)[C@H](CCC(=O)O)NC(=O)C(C)(C)NC(=O)CCc1ccc(O)cc1)[C@@H](C)O)[C@@H](C)O)[C@@H](C)CC)[C@@H](C)CC)C(=O)N[C@@H](CCC(=O)O)C(=O)NCC(=O)NCC(=O)N1CCC[C@H]1C(=O)N[C@@H](CO)C(=O)N[C@@H](CO)C(=O)NCC(=O)N[C@@H](C)C(=O)N1CCC[C@H]1C(=O)N1CCC[C@H]1C(=O)N1CCC[C@H]1C(=O)N[C@@H](CO)C(N)=O [Example 133] (Desaminotyrosyl-[Aib]EGT[αMeF]TSDYSI[Aib]LDEK([AEEA-AEEA-γGlu-C20 diacid])AQ[Aib]AFIEYLIEGGPSSGAPPPS-NH2)	0.0436	0.157	216	11.4	0.0879
CC[C@H](C)[C@H](NC(=O)[C@H](CC(C)C)NC(=O)[C@](C)(Cc1ccc(O)cc1)NC(=O)[C@@H](CCC(=O)O)NC(=O)[C@@H](NC(=O)[C@H](Cc1ccccc1)NC(=O)[C@H](C)NC(=O)C(C)(C)NC(=O)[C@H](CCC(N)=O)NC(=O)[C@H](C)NC(=O)[C@H](CCCCNC(=O)COCCOCCNC(=O)COCCOCCNC(=O)CC[C@H](NC(=O)CCCCCCCCCCCCCCCCC(=O)O)C(=O)O)NC(=O)[C@H](CCCN)NC(=O)[C@H](CC(=O)O)NC(=O)[C@H](CC(C)C)NC(=O)[C@](C)(CC(C)C)NC(=O)[C@@H](NC(=O)[C@H](CO)NC(=O)[C@H](CC(C)C)NC(=O)[C@H](CC(=O)O)NC(=O)[C@H](CO)NC(=O)[C@@H](NC(=O)[C@](C)(Cc1ccccc1F)NC(=O)[C@@H](NC(=O)CNC(=O)[C@H](CCC(=O)O)NC(=O)C(C)(C)NC(=O)[C@@H](N)Cc1ccc(O)cc1)[C@@H](C)O)[C@@H](C)O)[C@@H](C)CC)[C@@H](C)CC)C(=O)N[C@@H](CCC(=O)O)C(=O)NCC(=O)NCC(=O)N1CCC[C@H]1C(=O)N[C@@H](CO)C(=O)N[C@@H](CO)C(=O)NCC(=O)N[C@@H](C)C(=O)N1CCC[C@H]1C(=O)N1CCC[C@H]1C(=O)N1CCC[C@H]1C(=O)N[C@@H](CO)C(N)=O [Example 244] (H-Y[Aib]EGT[αMePhe(2-F)]TSDLSI[αMeL]LD[Orn]K([AEEA-AEEA-γGlu-C18 diacid])AQ[Aib]AFI[dE][αMeY]LIEGGPSSGAPPPS-NH2)	0.0252	0.0308	87.8	0.82	0.0225
